Measured values published in US11014934B2, “Antiseptic drug” (AO “TATKHIMFARMPREPARATY”, priority 2017, dated 2021).

Key:
Type in all cases: cell-based
[1] = tested on: P.aeruginosa in the biofilm; assay: Antibacterial activity against cells immersed in a biofilm matrix (CFU, drop plate); conditions: 24 hours
Procedure: To determine the effectiveness of the antibiotic against bacteria in […], bacteria were grown in Basal medium for 3 days at a temperature of 37° C. without swinging to obtain a dense biofilm [A. R Kayumov, Khakimullina E., Sharafutdinov I, Trizna E., Latypova L., Lien Thi, Margulis A., Bogachev M, Kurbangalieva A. Inhibition of biofilm formation in Bacillus subtilis by new halogenated furanoses. J. Antibiotics.—2014.—V. 68.—No 5.—P. 297-301.]. Then the biofilm was washed with a sterile 0.9% NaCl solution and fresh sterile medium was poured. Antiseptics were added to concentrations (1-16)×MBC (minimum bactericidal concentration) and incubated for 24 hours. Then the culture fluid was removed from the wells, washed once with 0.9% NaCl solution to remove non-adherent cells, and cell viability in biofilms was evaluated by counting CFU by Drop plate analysis [B. Herigstad, M Hamilton, J. Heersink How to optimize the drop plate method for enumerating bacteria. J Microbiol Methods.—2001.—V. 44.—P. 121-129]. To do this, the biofilm was mechanically removed from the surface and homogenized in 0.9% NaCl by pipetting and ultrasonic treatment. Then, serial 10-fold dilutions of the bacterial suspension in 0.9% NaCl were prepared, and 5 μI of each suspension were transferred to plates with dense nutrient medium. CFU was counted from drops containing 5-10 colonies.
The results of the study of antimicrobial activity against cells of the studied strains immersed in the biofilm matrix, in comparison with miramistin and benzalkonium chloride, are presented in FIGS. 1 and 2.

[2] = tested on: Rh. Oryzae; assay: Sensitivity of microscopic fungi in solution (colonies after exposure)
Procedure: For the preparation of inoculum, were respectively used pure (2-5) days cultures of yeast and mycelial fungi, grown on Saburo's dense nutrient broth. Inoculum for plating was prepared in different ways, depending on the type of fungi. Thus, yeast crops (C. albicans) were prepared by washing the culture from an agar stroke. Cultures of mycelial fungi (Rh. oryzae, Asp. fumigatus) were pre-degraded in a pounder. A suspension of microorganisms was prepared in a sterile isotonic sodium chloride solution, bringing the inoculum density to 5 UNITS (GISK [State Research Institute of Standardization and Control] named after L. A. Tarasevich) or according to the McFarland standard 1 UNIT with a concentration of at least 1×10^6 CFU/ml, considering that the size of the fungal elements is approximately 10 times the size of bacteria (this provided the possibility of creating a mixture of biocide with suspension, the concentration of microorganisms of the order of 1×10^5 CFU/ml).
Solutions of compound I, miramistin, and benzalkonium chloride in working concentrations (0.1%, 0.2%, 0.3%) were poured into sterile 0.9 ml tubes. 0.1 ml of microbial suspension was added to test tubes with disinfectant solutions and mixed by shaking for several seconds. The exposition lasted for 1, 5, and 15 minutes. After required temporary exposure for action of the disinfectant, 0.5 ml of the neutralizer solution was added and mixed by shaking.
Then, 0.1 ml of the mixture was inoculated on a dense nutrient medium and the plates with inoculate were placed in a thermostat with a temperature of 27° C. for (2-4) days for yeast and (5-7) days for mycelial fungi, respectively.
After the time required for the cultivation of microorganisms of this species, the results were counted according to the number of colonies grown on the Petri dish. In the absence of growth, the time for culturing microorganisms was increased by a factor of 2. The grown colonies were subjected to microscopy.
The tested substances were studied on clinical and archival strains of yeast and mycelial fungi. As comparison drugs, drugs commonly used in clinical practice were used: miramistin and benzalconium chloride. After the required exposure time for action of the disinfectant, a series of 0.1 ml mixture was aseptically plated on the surface of a dense nutrient medium in Petri dishes. After the time of cultivation of microorganisms, the results were counted according to the number of colonies grown on the Petri dish.

[3] = tested on: Escherichia coli CDC F-50; assay: Disinfectant activity in contaminated metal surface test
Procedure: (§1) The preparation of the bacterial suspension was carried out similarly to the procedure for determining the disinfecting activity of compound I in suspension (see example 7). To simulate protein contamination of the metal surface, a BSA solution was added to the bacterial suspension to a final concentration of 0.4%. The surface of the metal table was drawn into squares, the number of which depended on the number of strains studied. The test surface should be clean, intact, sterile. To do this, the table was cleaned with alcohol, and then with sterile water. A microbial suspension in a volume of 0.125 ml was applied to a surface area of 5×5 cm and distributed with a sterile spatula over the entire square area. After the microbial suspension was dried, a 0.5 ml solution of compound I (miramistin and benzalkonium chloride being a control) was uniformly applied to the surface at a working concentration of 0.1 and 0.2% and distributed over the square surface with a sterile spatula, and then kept for 1, 5, and 15 minutes.
(§2) After the end of exposure, the contaminated surface was thoroughly wiped with a sterile gauze cloth (size 5×5 cm) soaked in 1 ml of a neutralizer solution and the cloth was immersed in 10 ml of sterile physiological saline in a flask, which was shaken for 10 minutes.
(§3) Plating was carried out as in example 7, in addition to the controls were carried out: • control of the sterility of the surface (before applying the microbial suspension, a metal table was washed off with a sterile swab, followed by plating on a nutrient medium); • control of the vitality of the microorganism (after applying microbial suspension on the metal table, it was washed off with a sterile swab with subsequent plating on the nutrient medium).
(§4) The contamination density of 1 cm^2 of the surface and the percentage of disinfection were calculated, taking the number of colonies removed from control surfaces as 100%. The criterion for the effectiveness of surface disinfection is not less than 99.99% of the death of test microorganisms, the disinfection time is not more than 120 minutes.

[4] = tested on: Staphylococcus aureus ATCC 209p; assay: as above; conditions: for Inhibition rate (Mean ± SD) of Staphylococcus aureus ATCC 209p growth: 0.1% solution; for Inhibition rate (M ± SD) Staphylococcus aureus ATCC 209p: 0.2% solution
Procedure: as §1, §2, §3, §4

Compound: CCCCCCCCCCCCCC(=O)NCCC[N+](C)(C)Cc1ccccc1.O.[Cl-] [Miramistin, benzyldimethyl [3-(myristoylamino)propyl]-ammonium chloride monohydrate]
- excess of MBC giving a decrease in the number of CFU by 3 orders of magnitude [1]: 16 times
- Number of colonies grown in a Petri dish ([2]; exposure 1 min, 0.1% solution): 12
- Number of colonies grown in a Petri dish ([2]; exposure 1 min, 0.2% solution): 2
- Number of colonies grown in a Petri dish ([2]; exposure 1 min, 0.3% solution): 1
- Number of colonies grown in a Petri dish ([2]; exposure 5 min, 0.1% solution): 10
- Number of colonies grown in a Petri dish ([2]; exposure 5 min, 0.2% solution): 4
- Number of colonies grown in a Petri dish ([2]; exposure 15 min, 0.1% solution): 2
- Inhibition rate (M ± SD) of Escherichia coli CDC F-50 growth ([3]; 0.1% solution, exposure 1 min, +BSA): 99.75 ± 0.005%
- Inhibition rate (M ± SD) of Escherichia coli CDC F-50 growth ([3]; 0.1% solution, exposure 1 min, −BSA): 99.75 ± 0.00%
- Inhibition rate (M ± SD) of Escherichia coli CDC F-50 growth ([3]; 0.1% solution, exposure 5 min, +BSA): 99.97 ± 0.005%
- Inhibition rate (M ± SD) of Escherichia coli CDC F-50 growth ([3]; 0.1% solution, exposure 5 min, −BSA): 99.86 ± 0.005%
- Inhibition rate (M ± SD) of Escherichia coli CDC F-50 growth ([3]; 0.1% solution, exposure 15 min, +BSA): 99.99 ± 0.005%
- Inhibition rate (M ± SD) of Escherichia coli CDC F-50 growth ([3]; 0.1% solution, exposure 15 min, −BSA): 99.99 ± 0.005%
- Inhibition rate (M ± SD) of Escherichia coli CDC F-50 growth ([3]; 0.2% solution, exposure 1 min, +BSA): 99.83 ± 0.005%
- Inhibition rate (M ± SD) of Escherichia coli CDC F-50 growth ([3]; 0.2% solution, exposure 1 min, −BSA): 99.98 ± 0.005%
- Inhibition rate (M ± SD) of Escherichia coli CDC F-50 growth ([3]; 0.2% solution, exposure 5 min, +BSA): 99.99 ± 0.005%
- Inhibition rate (M ± SD) of Escherichia coli CDC F-50 growth ([3]; 0.2% solution, exposure 5 min, −BSA): 99.99 ± 0.005%
- Inhibition rate (M ± SD) of Escherichia coli CDC F-50 growth ([3]; 0.2% solution, exposure 15 min, +BSA): 99.99 ± 0.005%
- Inhibition rate (M ± SD) of Escherichia coli CDC F-50 growth ([3]; 0.2% solution, exposure 15 min, −BSA): 100%
- time after application to effective inhibition of bacterial growth ([3]; Escherichia coli CDC F-50, 0.1% solutions): 15 min
- Inhibition rate (Mean ± SD) of Staphylococcus aureus ATCC 209p growth ([4]; exposure 1 min, +BSA): 99.98 ± 0.00%
- Inhibition rate (Mean ± SD) of Staphylococcus aureus ATCC 209p growth ([4]; exposure 1 min, −BSA): 99.98 ± 0.005%
- Inhibition rate (Mean ± SD) of Staphylococcus aureus ATCC 209p growth ([4]; exposure 5 min, +BSA): 99.99%
- Inhibition rate (Mean ± SD) of Staphylococcus aureus ATCC 209p growth ([4]; exposure 5 min, −BSA): 99.99%
- Inhibition rate (Mean ± SD) of Staphylococcus aureus ATCC 209p growth ([4]; exposure 15 min, +BSA): 99.99%
- Inhibition rate (Mean ± SD) of Staphylococcus aureus ATCC 209p growth ([4]; exposure 15 min, −BSA): 99.99%
- Inhibition rate (M ± SD) Staphylococcus aureus ATCC 209p ([4]; exposure 1 min, +BSA): 99.98 ± 0.00%
- Inhibition rate (M ± SD) Staphylococcus aureus ATCC 209p ([4]; exposure 1 min, −BSA): 99.98 ± 0.005%
- Inhibition rate (M ± SD) Staphylococcus aureus ATCC 209p ([4]; exposure 5 min, +BSA): 99.99%
- Inhibition rate (M ± SD) Staphylococcus aureus ATCC 209p ([4]; exposure 5 min, −BSA): 99.99%
- Inhibition rate (M ± SD) Staphylococcus aureus ATCC 209p ([4]; exposure 15 min, +BSA): 99.99%
- Inhibition rate (M ± SD) Staphylococcus aureus ATCC 209p ([4]; exposure 15 min, −BSA): 99.99%
- time after application to effective inhibition of bacterial growth (99.99%) ([4]; Staphylococcus aureus ATCC 209p, 0.1% solutions): 5 min
